According to patent US6281356A, “Substituted pyrroles” (Hoffmann-La Roche Inc., priority 2000, dated 2001):

System: epithelial breast carcinoma cell line (MDAMB-435)
Assay: Antiproliferative activity (growth inhibition, MTT), epithelial breast carcinoma cell line MDAMB-435
Format: cell-based
Settings: Homo sapiens, MDA-MB-435, 120 h, 5 days post drug addition, 0.1% DMSO, read-out: IC50 (growth inhibition of MDAMB-435 cells)
Description: The epithelial breast carcinoma cell line (MDAMB-435) was purchased from ATCC (American Type Cell Culture Collection) and was grown in culture medium as recommended by ATCC. For analysis of the effect of various compounds of formula I on the growth of these cells, the cells were plated at a concentration of 1500 cells/well in a 96 well tissue culture plate ("test plate"). The day after the cells were plated, the compounds to be analyzed were dissolved in 100% DMSO (dimethyl sulfoxide) to yield at 10 mM stock solution. Each compound was diluted in H2 O to 1 mM and was added to triplicate wells in the first row of a 96 well master plate containing medium to yield a final concentration of 40 μM. The compounds were then serially diluted in medium in the "master plate". The diluted compound(s) were then transferred to test plates containing cells. A row of vehicle "control cells" received DMSO. The final concentration of DMSO in each well was 0.1%. 5 days post drug addition, the plate was analyzed as described below.
MTT (3-(4-5 methyl thiazole-2-yl)-2,5-diphenyl tetrazolium bromide; thiazolyl blue) was added to each well to yield a final concentration of 1 mg/ml. The plate was then incubated at 37° C. for 21/2-3 hours. The MTT-containing medium was then removed and 50 μl of 100% ethanol was added to each well to dissolve the formazan. The absorbences were then read using an automated plate reader (Bio-tek microplate reader). IC50 s were calculated using the Reed and Munsch equation, see Am. J. Hygiene Vol. 27 pgs. 493-497,1938.

Row | Structure (SMILES) | IC50 [nM]
1 | Cn1cc(C2=C(c3cn(C)c4cc(N5CCCC5)ccc34)C(=O)NC2=O)c2ccc(Br)cc21 [Example 14f, 3-(6-Bromo-1-methyl-1H-indol-3-yl)-4-(1-methyl-6-pyrrolidin-1-yl-1H-indol-3-yl)pyrrole-2,5-dione] | 5
2 | Cn1cc(C2=C(c3cn(C)c4cc([N+](=O)[O-])ccc34)C(=O)NC2=O)c2ccc(-c3nccs3)cc21 [Example 4c, 3-(1-Methyl-6-nitro-1H-indol-3-yl)-4-(1-methyl-6-thiazol-2-yl-1H-indol-3-yl)pyrrole-2,5-dione] | 20
3 | Cn1cc(C2=C(c3cn(C)c4cc([N+](=O)[O-])ccc34)C(=O)NC2=O)c2ccc(-c3cncnc3)cc21 [Example 18, 3-(1-Methyl-6-nitro-1H-indol-3-yl)-4-(1-methyl-6-pyrimidin-5-yl-1H-indol-3-yl)pyrrole-2,5-dione] | 50
4 | Cn1cc(C2=C(c3cn(C)c4cc(-c5cncnc5)ccc34)C(=O)NC2=O)c2ccccc21 [Example 19, 3-(1-Methyl-1-indol-3-yl)-4-(1-methyl-6-pyrimidin-5-yl-1H-indol-3-yl)pyrrole-2,5-dione] | 80
5 | Cn1cc(C2=C(c3c[nH]c4cc(N5CCOCC5)ccc34)C(=O)NC2=O)c2ccc(F)cc21 [Example 12n, 3-(6-Fluoro-1-methyl-1H-indol-3-yl)-4-(6-morpholin-4-yl-1H-indol-3-yl)-pyrrole-2,5-dione] | 12
6 | Cn1ccnc1-c1ccc2c(C3=C(c4cn(C)c5ccccc45)C(=O)NC3=O)cn(C)c2c1 [Example 4b, 3-(1-Methyl-1H-indol-3-yl)-4-[1-methyl-6-(1-methyl-1H-imidazol-2-yl)-1H-indol-3-yl]-pyrrole-2,5-dione] | 60
7 | Cn1cc(C2=C(c3cn(C)c4cc([N+](=O)[O-])ccc34)C(=O)NC2=O)c2ccc(-c3ccsc3)cc21 [Example 6, 3-(1-methyl-6-nitro-1H-indol-3-yl)-4-(1-methyl-6-thiophen-3-yl-1H-indol-3-yl)pyrrole-2,5-dione] | 40
8 | Cn1cc(C2=C(c3cn(C)c4cc([N+](=O)[O-])ccc34)C(=O)NC2=O)c2ccc(-c3ccns3)cc21 [Example 2m, 3-(6-Isothiazol-5-yl-1-methyl-1H-indol-3-yl)-4-(1-methyl-6-nitro-1H-indol-3-yl)pyrrole-2,5-dione] | 10
9 | COCn1cc(C2=C(c3cn(C)c4cc([N+](=O)[O-])ccc34)C(=O)NC2=O)c2ccc(N3CCCC3)cc21 [Example 12g, 3-(1-Methoxymethyl-6-pyrrolidin-1-yl-1H-indol-3-yl)-4-(1-methyl-6-nitro-1H-indol-3-yl)pyrrole-2,5-dione] | 20
10 | Cn1cc(C2=C(c3cn(C)c4cc(C(F)(F)F)ccc34)C(=O)NC2=O)c2ccc(N3CCCC3)cc21 [Example 14h, 3-(1-Methyl-6-pyrrolidin-1-yl-1H-indol-3-yl)-4-(1-methyl-6-trifuloromethyl-1H-indol-3-yl)pyrrole-2,5-dione] | 80
11 | Cn1cc(C2=C(c3cn(C)c4cc(N5CCOCC5)ccc34)C(=O)NC2=O)c2ccc(F)cc21 [Example 14b, 3-(6-Fluoro-1-methyl-1H-indol-3-yl)-4-(1-methyl-6-morpholin-4-yl-1H-indol-3-yl)pyrrole-2,5-dione] | 30
12 | Cn1cncc1-c1ccc2c(C3=C(c4cn(C)c5ccccc45)C(=O)NC3=O)cn(C)c2c1 [Example 2a, 3-(1-Methyl-1H-indol-3-yl)-4-[1-methyl-6-(3-methyl-3H-imidazol-4-yl)-1H-indol-3-yl]pyrrole-2,5-dione] | 50
13 | Cn1cc(C2=C(c3cn(C)c4cc(N5CCCC5)ccc34)C(=O)NC2=O)c2ccc(C#N)cc21 [Example 15, 1-Methyl-3-[4-(1-methyl-6-pyrrolidin-1-yl-1H-indol-3-yl)-2,5-dioxo-2,5dihydro-1H-pyrrole-3-yl]-1H-indole-6-carbonitrile] | < 10
14 | Cn1cc(C2=C(c3c[nH]c4cc(N5CCCC5)ccc34)C(=O)NC2=O)c2ccc([N+](=O)[O-])cc21 [Example 12h, 3-(1-Methyl-6-nitro-1H-indol-3-yl)-4-(6-pyrrolidin-1-yl-1H-indol-3-yl)pyrrole-2,5-dione] | 2
15 | Cn1cc(C2=C(c3cn(C)c4cc(N5CCOCC5)ccc34)C(=O)NC2=O)c2ccc(Br)cc21 [Example 14d, 3-(6-Bromo-1-methyl-1H-indol-3-yl)-4-(1-methyl-6-morpholin-4-yl-1H-indol-3-yl)pyrrole-2,5-dione] | 3
16 | Cn1cc(C2=C(c3c[nH]c4ccccc34)C(=O)NC2=O)c2ccc(-c3ccco3)cc21 [Example 2i, 3-(6-Furan-2-yl-1-methyl-1H-indol-3-yl)-4-(1H-indol-3-yl)pyrrole-2,5-dione] | 30

Row | Structure (SMILES) | IC50 [nM]
17 | Cn1nccc1-c1ccc2c(C3=C(c4cn(C)c5cc([N+](=O)[O-])ccc45)C(=O)NC3=O)cn(C)c2c1 [Example 2j, 3-[1-Methyl-6-(2-methyl-2H-pyrazol-3-yl)-1H-indol-3-yl]-4-(1-methyl-6-nitro-1H-indol-3-yl)pyrrole-2,5-dione] | 20
18 | COc1ccc2c(C3=C(c4cn(C)c5cc(-n6ccnc6)ccc45)C(=O)NC3=O)cn(C)c2c1 [Example 9, 3-(6-Imidazol-1-yl-1-methyl-1H-indol-3-yl)-4-(6-methoxy-1-methyl-1H-indol-3-yl)-pyrrole-2,5-dione] | 60
19 | Cn1cc(C2=C(c3cn(C)c4cc(-n5ccnc5)ccc34)C(=O)NC2=O)c2ccccc21 [Example 7, 3-(6-imidazol-1-yl-1-methyl-1H-indol-3-yl)-4-(1-methyl-1H-indol-3-yl)-pyrrole-2,5-dione] | 60
20 | Cn1cc(C2=C(c3cn(C)c4cc([N+](=O)[O-])ccc34)C(=O)NC2=O)c2ccc(N3CCOCC3)cc21 [Example 12a, 3-(1-Methyl-6-morpholin-4-yl-1H-indol-3-yl)-4-(1-methyl-6-nitro-1H-indol-3-yl)pyrrole-2,5-dione] | < 10
21 | Cn1cc(C2=C(c3c[nH]c4cc(N5CCCC5)ccc34)C(=O)NC2=O)c2ccc(Cl)cc21 [Example 12f, 3-(6-Chloro-1-methyl-1H-indol-3-yl)-4-(6-pyrrolidin-1-yl-1H-indol-3-yl)pyrrole-2,5-dione] | < 3
22 | Cn1cc(C2=C(c3cn(C)c4cc(N5CCCC5)ccc34)C(=O)NC2=O)c2ccccc21 [Example 12j, 3-(1-Methyl-1H-indol-3-yl)-4-(1-methyl-6-pyrrolidin-1-yl-1H-indol-3-yl)pyrrole-2,5-dione] | 60
23 | Cn1cc(C2=C(c3cn(C)c4cc(C(F)(F)F)ccc34)C(=O)NC2=O)c2ccc(N3CCOCC3)cc21 [Example 14e, 3-(1-Methyl-6-morpholin-4-yl-1H-indol-3-yl)-4-(1-methyl-6-trifluoromethyl-1H-indol-3-yl)pyrrole-2,5-dione] | 50
24 | Cn1cc(C2=C(c3cn(C)c4cc(N5CCCC5)ccc34)C(=O)NC2=O)c2ccc(Cl)cc21 [Example 14i, 3-(6-Chloro-1-methyl-1H-indol-3-yl)-4-(1-methyl-6-pyrrolidin-1-yl-1H-indol-3-yl)pyrrole-2,5-dione] | 10
25 | Cn1cc(C2=C(c3cn(C)c4cc([N+](=O)[O-])ccc34)C(=O)NC2=O)c2ccc(-c3ccco3)cc21 [Example 2h, 3-(6-Furan-2-yl-1-methyl-1H-indol-3-yl)-4-(1-methyl-6-nitro-1H-indol-3-yl)pyrrole-2,5-dione] | 10
26 | Cn1cc(C2=C(c3cn(C)c4cc(-n5ccnc5)ccc34)C(=O)NC2=O)c2ccc(Br)cc21 [Example 10a, 3-(6-Bromo-1-methyl-1H-indol-3-yl)-4-(6-imidazol-1-yl-1-methyl-1H-indol-3-yl)-pyrrole-2,5-dione] | 25
27 | Cn1cc(C2=C(c3cn(C)c4cc([N+](=O)[O-])ccc34)C(=O)NC2=O)c2ccc(-c3cccs3)cc21 [Example 4d, 3-(1-Methyl-6-nitro-1H-indol-3-yl)-4-(1-methyl-6-thiophen-2-yl-1H-indol-3yl)-pyrrole-2,5-dione] | 20
28 | Cn1cncc1-c1ccc2c(C3=C(c4cn(C)c5cc([N+](=O)[O-])ccc45)C(=O)NC3=O)cn(C)c2c1 [Example 1, 3-[1-Methyl-6-(3-methyl-3H-imidazol-4-yl)-1H-indol-3-yl]-4-(1-methyl-6-nitro-1H-indol-3-yl)-pyrrole-2,5-dione] | 5
29 | COc1ccc2c(C3=C(c4cn(C)c5cc(-c6cncn6C)ccc45)C(=O)NC3=O)cn(C)c2c1 [Example 2b, 3-(6-Methoxy-1-methyl-1H-indol-3-yl)-4-[1-methyl-6-(3-methyl-3H-imidazol-4-yl)-1H-indol-3-yl]pyrrole-2,5-dione] | 60
30 | Cn1cc(C2=C(c3cn(C)c4cc(-c5nccs5)ccc34)C(=O)NC2=O)c2ccccc21 [Example 4a, 3-(1-Methyl-1H-indol-3-yl)-4-(1-methyl-6-thiazol-2-yl-1H-indol-3-yl)pyrrole-2,5-dione] | 24
31 | CCn1ccnc1-c1ccc2c(C3=C(c4cn(C)c5cc([N+](=O)[O-])ccc45)C(=O)NC3=O)cn(C)c2c1 [Example 2d] | 120
